Assay results reported in patent US9244346B2, “Negative-type photosensitive resin composition, pattern forming method, cured film, insulating film, color filter, and display device” (TOKYO OHKA KOGYO CO., LTD., priority 2011, dated 2016).

Tests used:
[1] = wavelength (λmax) at absorption spectrum peak and gram absorption coefficient at λmax; format: physicochemical; settings: for λmax: wavelength at absorption spectrum peak
[2] = solubility to propylene glycol monomethyl ether acetate (PM) and cyclohexanone (AN); settings: for Solubility to Solvent AN: cyclohexanone; for Solubility to Solvent PM: propylene glycol monomethyl ether acetate

| SMILES | Gram Absorption Coefficient at λmax [1] | λmax [1] [nm] | Solubility to Solvent AN [2] [mass %] | Solubility to Solvent PM [2] [mass %] |
| --- | --- | --- | --- | --- |
| COc1ccc(/C=C/C(=O)N2CCOCC2)cc1 [Compound 4] | 79 | 310 | – | – |
| COc1ccc(/C=C/C(=O)N2CCCCC2)c([N+](=O)[O-])c1 [Compound 13] | 87 | 313 | >50 | >50 |
| COc1ccc(/C=C/C(=O)n2ccnc2)cc1[N+](=O)[O-] [Compound 6] | 86 | 344 | – | – |
| CCN(CC)C(=O)/C=C/c1ccc(OC)c([N+](=O)[O-])c1 [Compound 10] | 119 | 354 | >50 | >50 |
| CCN(CC)C(=O)/C(C)=C/c1ccc(OC)cc1[N+](=O)[O-] [Compound 11] | 107 | 349 | >50 | >50 |
| COc1ccc(/C=C(\C)C(=O)N2CCCCC2)cc1[N+](=O)[O-] [Compound 16] | 105 | 323 | >50 | >50 |
| COc1ccc(C=C(C)C(=O)n2ccnc2)cc1 [Compound 18] | 84 | 301 | – | – |
| CCN(CC)C(=O)C(C)=Cc1ccc(OC)cc1 [Compound 19] | 86 | 318 | >50 | >50 |
| COc1ccc(/C=C/C(=O)N2CCCCC2)cc1[N+](=O)[O-] [Compound 14] | 94 | 322 | >50 | >50 |
| COc1ccc(C=CC(=O)n2ccnc2)c(O)c1 [compound 9, reference compound] | 65 | 290 | >50 | >50 |
| CCO[Si](C)(CCCN)OCC [Comparative Compound 6, reference compound] | 143 | 212 | >50 | >50 |
| COc1ccc(/C=C(\C)C(=O)n2ccnc2)c([N+](=O)[O-])c1 [Compound 7] | 137 | 339 | >50 | >50 |
| COc1ccc(/C=C(\C)C(=O)N2CCCCC2)c([N+](=O)[O-])c1 [Compound 15] | 92 | 313 | >50 | >50 |
| CCN(CC)C(=O)C=Cc1ccc(OC)cc1O [compound 7, reference compound] | 72 | 304 | >50 | >50 |
| CCN(CC)C(=O)/C=C/c1ccc(OC)cc1[N+](=O)[O-] [Compound 9] | 102 | 342 | >50 | >50 |
| COc1ccc(C=CC(=O)N2CCCCC2)cc1 [Compound 17] | 74 | 281 | >50 | >50 |
| COc1ccc(/C=C/C(=O)Nc2ccccc2)cc1 [Compound 2] | 117 | 317 | >50 | >50 |
| COc1ccc(/C=C/C(=O)n2ccnc2)c([N+](=O)[O-])c1 [Compound 5] | 121 | 332 | – | – |
| CCN(CC)C(=O)/C(C)=C/c1ccc(OC)c([N+](=O)[O-])c1 [Compound 12] | 127 | 361 | >50 | >50 |
| COc1ccccc1/C=C/C(=O)N1CCCCC1 [Comparative Compound 2, reference compound] | 76 | 275 | <1 | <1 |
| CCN(CC)C(=O)/C=C/c1ccc(OC)cc1 [Compound 1] | 90 | 309 | >50 | >50 |
| COc1ccc(/C=C/C(=O)n2ccnc2)cc1 [Compound 3] | 81 | 293 | >50 | >50 |
| COc1ccc(/C=C(\C)C(=O)n2ccnc2)cc1[N+](=O)[O-] [Compound 8] | 98 | 351 | – | – |
